The values that follow come from patent US6759413B2, “Use of cox-2 inhibitors as gastroprokinetics” (SmithKline Beecham Corporation, priority 2000, dated 2004).

In one experiment the test system is Rats. Nature of the experiment: Rat model of post operative ileus (methylene blue meal transit). Format: in vivo. Particulars: 3 mg/kg intravenous infusion; four hours post-gavage; eight rats; vehicle 49.3±1.3 cm; p<0.05. The method, then: Activity In Vivo: Rat Model of Post Operative Ileus
The selective COX-2 inhibitor 2-(4-ethoxy-phenyl)-3-(4-methanesulfonyl-phenyl)-pyrazolo[1,5-b]pyridazine was evaluated in a rat model of post-operative ileus. The methodology represents a modification of the procedure described by McGill et al, Gastroenterology 116: A1040 (1999).
Rats (fourteen) received 0.5 cc of skimmed milk with methylene blue by gavage. Either vehicle (six rats) or 2-(4-ethoxy-phenyl)-3-(4-methanesulfonyl-phenyl)-pyrazolo[1,5-b]pyridazine (eight rats) was then administered by intravenous infusion. Rats were sacrificed four hours post-gavage and the distance the methylene blue meal traversed the intestine measured. The pylorus was set at 0 cm. With vehicle treatment, the meal traversed 49.3±1.3 cm while with 2-(4-ethoxy-phenyl)-3-(4-methanesulfonyl-phenyl)-pyrazolo[1,5-b]pyridazine (3 mg/kg), the meal traversed 67.8±1.1 cm (p<0.05).

Experiment [1] has as its system strips of canine fundic circular muscle. Briefly: Smooth muscle in vitro model: fundic circular muscle strips, relaxation/tension change. Format: cell-based. Particulars: 10 μM; n=6-8 strips; FIG. 2.
In a further experiment the test system is Beagle dogs. Briefly: Dog model of gastric emptying (solid phase, gamma camera). The experiment is classed as in vivo. Particulars: po for three days, measured on fourth day after am dosing; cisapride 0.14 mg/kg TID, celecoxib 2.8 mg/kg BID, 8-acetyl compound 1.2 mg/kg BID; FIG. 3. The method, then:
Activity In Vivo: Dog Model of Gastric Emptying
Beagle dogs were treated for three days with test agents (po administration): placebo BID; cisapride 0.14 mg/kg TID; celecoxib 2.8 mg/kg BID; or 8-acetyl-3-(4-fluoro-phenyl)-2-(4-methanesulfonyl-phenyl)-imidazo[1,2-a]pyridine 1.2 mg/kg BID. Solid phase gastric emptying was measured on the fourth day following am dosing. The same three animals were used for evaluation of each agent, thus reducing any interanimal variations.
Isotope-labeled solid food was fed to the dogs for their morning meal and animals were then placed under a gamma camera and scans performed over the 24 to 36 hours.

For the next experiment, the system named is dogs. Nature of the experiment: Dog model of lower esophageal sphincter pressure (LESP). Format: in vivo. Particulars: 3 days treatment, day 4 am dose; cisapride 0.14 mg/kg TID, celecoxib 1.2 mg/kg BID; FIG. 4. On the procedure:
Activity In Vivo: Dog Model of Lower Esophageal Sphincter Pressure (LESP) Six adult dogs were instrumented with 14 French esophagostomy tubes. Animals were treated for 3 days with placebo (BID), cisapride (0.14 mg/kg TID) or celecoxib (1.2 mg/kg BID). On day 4 dogs received their am dose of test agent and water perfused manometry catheters were inserted through the esophagostomy tubes. Lower esophageal sphincter pressures (LESPs) were then monitored.

Experiment [2] deals with strips of canine antrum circular muscles. Briefly: Smooth muscle in vitro model of gastric propulsion: antral circular muscle strips, acetylcholine-induced contraction. Particulars: 10 μM test agent; ACh 1 μM; n=4-8 strips; organ bath, Krebs solution; FIG. 1. The experiment is classed as cell-based. On the procedure: Smooth Muscle in vitro Model of Gastric Propulsion
Agents which stimulate antral smooth muscle activity would be expected to enhance the rate of gastric emptying by propulsion of contents in the aboral direction. By contrast, fundic relaxation could lead to delayed emptying of the stomach as the upper stomach would serve as a reservoir for gastric contents.
The effects of test agents were evaluated on strips of canine antrum circular muscles (n=4-8 strips) suspended in organ baths bathed with Krebs solution. Following establishment of baseline tension, acetylcholine (“ACh”; 1 μM), indomethacin (10 μM), or 8-acetyl-3-(4-fluoro-phenyl)-2-(4-methanesulfonyl-phenyl)-imidazo[1,2-a]pyridine (“8-Acetyl- . . . ”; 10 μM) were applied and tension changes monitored and recorded on a polygraph.

SMILES strings stand for the structures.

In the case of `CCOc1ccc(-c2nn3ncccc3c2-c2ccc(S(C)(=O)=O)cc2)cc1` [2-(4-ethoxy-phenyl)-3-(4-methanesulfonyl-phenyl)-pyrazolo[1,5-b]pyridazine], the “distance the methylene blue meal traversed the intestine (pylorus = 0 cm)” value with Rats is 67.8±1.1 cm. For `CC(=O)c1cccn2c(-c3ccc(F)cc3)c(-c3ccc(S(C)(=O)=O)cc3)nc12` [8-acetyl-3-(4-fluoro-phenyl)-2-(4-methanesulfonyl-phenyl)-imidazo[1,2-a]pyridine], the “relaxation / change in tension of fundic circular muscle” value in experiment [1] is listed as “only small changes in tension”. Besides, in the experiment with Beagle dogs, the “rate of solid phase gastric emptying” value was “increased the rate of gastric emptying”. As for `COc1cc(N)c(Cl)cc1C(=O)NC1CCN(CCCOc2ccc(F)cc2)CC1OC` (stereo not shown) [cisapride], the “rate of solid phase gastric emptying” value with Beagle dogs is on record as “increased the rate of gastric emptying”. Also, in the experiment with dogs, the “lower esophageal sphincter pressure (LESP) compared to placebo” value is listed as “increased LESP”. Regarding `COc1ccc2c(c1)c(CC(=O)O)c(C)n2C(=O)c1ccc(Cl)cc1` [indomethacin], in experiment [2], the “sensitisation of antral circular muscle to acetylcholine-induced contractions” value is recorded as “enhanced acetylcholine-induced contractions”. For the same compound, the “relaxation / change in tension of fundic circular muscle” value in experiment [1] is “near complete relaxation”.
